# Key:
# [1] = tested on: Ovarian Carcinoma 1A9PTX10; experiment: Inhibition of cell growth, ovarian carcinoma 1A9PTX10 (MDR-, mutant tubulin); format: cell-based; details: Homo sapiens, 1A9/ptx-10
# From the text: (§1) Of note is the top part of the molecule illustrated above, which may be seen to have a 9-keto structure and 10-β hydroxy or 10-β acetoxy stereochemistry. The present application provides novel taxane analogs having a stereochemistry at the C-9 and C-10 OH positions of the molecule.
# [2] = tested on: Breast Cancer MCF-7 NCI-AR; experiment: Inhibition of cell growth, breast cancer MCF-7 NCI-AR (MDR+, wild type tubulin); format: cell-based; details: Homo sapiens
# From the text: as §1
# Neuroblastoma SK-N-AS = experiment: Inhibition of cell growth, neuroblastoma SK-N-AS; format: cell-based; details: Homo sapiens, concentration 0.1 ug/mL
# From the text: as §1
# [3] = tested on: Squamous Cell Carcinoma FADU; experiment: Inhibition of cell growth, squamous cell carcinoma FADU; format: cell-based; details: Homo sapiens, concentration 0.05 ug/mL
# From the text: as §1
# [4] = tested on: bovine microtubule protein (tubulin plus MAP); experiment: In vitro ED50 MT polymerization study (DAPI fluorescence tubulin assay); format: biochemical; details: for ED50 Compound/ED50 Paclitaxel: ratio of tubulin polymerization ED50 to that of paclitaxel; for EC50: tubulin polymerization, 37° C., 30 minutes, maximum assembly = 25 μM paclitaxel
# Protocol: In this tubulin binding assay, microtubule protein (MTP) is used as a substrate. The assay contains bovine tubulin plus microtubule associated proteins (MAP). MTP is polymerized into microtubules in the presence of DAPI (4′,6′-diamidino-2-phenylindole), a fluorescent compound. DAPI binds to tubulin; when microtubules are formed and there is an enhancement of fluorescence. The microtubule formation is measured as a function of time, using a fluorescence plate reader. […] The method used is based on the procedure published by Donna M. Barron, et al, “Fluorescence-based high-throughput assay for antimicrotuble drugs” Analytical Biochemistry, 315: 49-56, 2003, which is incorporated by reference in its entirety. The excitation wavelength, in that assay, was set at 370 nm and the emission wavelength was set at 450 nm for the DAN experiments.
# A Bio-Tek FL 600 microplate Fluorescence used to measure the relative level of fluorescence in the DAPI assay.
# Assays were conducted in 96-well plates. Each well contained a total volume of 0.1 mL consisting of PEM buffer (0.1 M Pipes, 1 mM EGTA, 1 mM MgCl2, pH 6.9), 0.2 mg bovine microtubule protein, and 10 μg of DAPI. […] The final DMSO concentration was 4%. The plates were incubated at 37° C. for 30 minutes and read in a fluorescence plate reader using an excitation wavelength of 360 nm and an emission wavelength of 460 nm. Fluorescence values were corrected for the sample without compound.
# Experiments were done twice in triplicate. Results were subsequently combined and fit to a non-linear regression program.
# Neuroblastoma SKNAS = experiment: MTS proliferation assay, SKNAS; format: cell-based; details: Homo sapiens, SK-N-AS, 48 to 72 hrs
# Protocol: (§2) Day 1: Cells were plated in appropriate growth medium at 5×10^3 per well in 100 ul in 96 well tissue culture plates, Falcon, one for each drug to be tested. Col 1 was blank; it contained no cells, just medium. The plates were incubated overnight at 37° C., 5% CO2 to allow attachment,
# (§3) Day 2: Added 120 ul growth medium in wells of 96-well “dilution plates” (one for each drug) and let sit in 37° C. incubator for about 1 hr.
# (§4) Thawed DMSO drug stocks (usually at 10 mM). Each drug was diluted 6 ul into a tube with 3 ml growth medium, to 20 uM.
# (§5) Aspirated medium from col 12 of a dilution plate; added 200-300 ul of 20 uM drug to wells of col 12. Made serial dilution down this 96-well plate: for a […] dilution pattern, moved 60 ul from col 12 to col 11, mixed 4-5 times (using 8 place multi-pipettor), moved 60 ul to col 10, etc. stopping at col 3.
# (§6) Moved 100 ul of medium+drug from dilution plate to a cell plate, i.e. col 1 from drug plate (blank=no cells) to col 1 of cell plate, etc. up to col 12. Col 2 contained cells with no drug. Col 3 had the lowest concentration of drug (0.005 nM) and col 12 had the highest drug concentration (10 uM).
# (§7) Day 4 or 5: Terminated the assay 48 to 72 hrs after drug addition. […] When the color turned dark in control wells (col 2), and was still light in col 12, the absorbance at 490 nm was read on a plate reader; the results were used to calculate IC50.
# head/neck FADU = experiment: MTS proliferation assay, FADU; format: cell-based; details: Homo sapiens, 48 to 72 hrs
# Protocol: as §2, §3, §4, §5, §6, §7
# prostate DU145 = experiment: MTS proliferation assay, DU145; format: cell-based; details: Homo sapiens, DU-145, 48 to 72 hrs
# Protocol: as §2, §3, §4, §5, §6, §7
# breast MDA435s = experiment: MTS proliferation assay, MDA435s; format: cell-based; details: 48 to 72 hrs
# Protocol: as §2, §3, §4, §5, §6, §7
# head/neck KB = experiment: MTS proliferation assay, KB; format: cell-based; details: 48 to 72 hrs
# Protocol: as §2, §3, §4, §5, §6, §7
# head/neck KBV (MDR+) = experiment: MTS proliferation assay, KBV (MDR+); format: cell-based; details: 48 to 72 hrs
# Protocol: as §2, §3, §4, §5, §6, §7
# colon HT29 = experiment: MTS proliferation assay, HT29; format: cell-based; details: Homo sapiens, HT-29, 48 to 72 hrs
# Protocol: as §2, §3, §4, §5, §6, §7
# uterine MESSA = experiment: MTS proliferation assay, MESSA; format: cell-based; details: Homo sapiens, MES-SA, 48 to 72 hrs
# Protocol: as §2, §3, §4, §5, §6, §7
# uterine MESSA/Dox (MDR+) = experiment: MTS proliferation assay, MESSA/Dox (MDR+); format: cell-based; details: Homo sapiens, MES-SA, 48 to 72 hrs
# Protocol: as §2, §3, §4, §5, §6, §7
# prostate PC-3 = experiment: MTS proliferation assay, PC-3; format: cell-based; details: prostate PC-3, MTS, 48 to 72 hrs
# Protocol: as §2, §3, §4, §5, §6, §7
# [5] = Biological evaluation of separated isomers of Formula 48 (activity comparison); details: separated diastereoisomer vs mixture
smiles,measurement,setting,value
"CC(=O)O[C@H]1C(=O)[C@@]2(C)[C@H]([C@H](OC(=O)c3ccccc3)[C@]3(O)C[C@H](OC(=O)[C@H](O)[C@@H](NC(=O)c4ccccc4)c4ccccc4)C(C)=C1C3(C)C)[C@]1(OC(C)=O)CO[C@@H]1C[C@@H]2O [Paclitaxel, reference compound]",inhibition at 5 µg/mL,"[1]; 1A9PTX10, concentration 5 ug/mL",55%
same,inhibition at 40 µg/mL,"[2]; MCF7, concentration 40 ug/mL",55%
same,inhibition at 0.1 µg/mL,Neuroblastoma SK-N-AS,54%
same,inhibition at 0.05 µg/mL,[3],47%
CC(=O)O[C@@]12CO[C@@H]1C[C@H](O)[C@@]1(C)C(=O)[C@H](O)C3=C(C)[C@@H](OC(=O)[C@H](O)[C@@H](NC(=O)OC(C)(C)C)c4ccccc4)C[C@@](O)([C@@H](OC(=O)c4ccccc4)[C@H]21)C3(C)C [Docetaxel],ED50 Compound/ED50 Paclitaxel,[4],1.07
same,EC50,[4],3180 ± 450 nM
C=CC1O[C@H]2C[C@H]3OC[C@@]3(OC(C)=O)[C@H]3[C@H](OC(=O)c4ccccc4)[C@]4(O)C[C@H](OC(=O)[C@H](O)[C@@H](NC(=O)c5ccccc5)c5ccccc5)C(C)=C([C@H](OC(C)=O)[C@H](O1)[C@]23C)C4(C)C (some centres unmarked) [Formula 45],inhibition at 0.25 µg/mL,"[1]; 1A9PTX10, concentration 0.25 ug/mL",93%
same,inhibition at 0.5 µg/mL,"[1]; 1A9PTX10, concentration 0.5 ug/mL",96%
same,inhibition at 0.5 µg/mL,"[2]; MCF7, concentration 0.5 ug/mL",45%
same,inhibition at 1 µg/mL,"[2]; MCF7, concentration 1.0 ug/mL",65%
same,inhibition at 2 µg/mL,"[2]; MCF7, concentration 2.0 ug/mL",94%
C=C[C@H]1O[C@H]2C[C@H]3OC[C@@]3(OC(C)=O)[C@H]3[C@H](OC(=O)c4ccccc4)[C@]4(O)C[C@H](OC(=O)[C@H](O)[C@H](CC(C)C)NC(=O)OC(C)(C)C)C(C)=C([C@H](OC(C)=O)[C@H](O1)[C@]23C)C4(C)C [Formula S-31],IC50,Neuroblastoma SKNAS,11 nM
same,IC50,head/neck FADU,21 nM
same,IC50,prostate DU145,60 nM
same,IC50,breast MDA435s,10 nM
same,IC50,head/neck KB,9.4 nM
same,IC50,head/neck KBV (MDR+),553 nM
same,IC50,colon HT29,0.006 nM
same,IC50,uterine MESSA,2.9 nM
same,IC50,uterine MESSA/Dox (MDR+),44.8 nM
same,IC50,prostate PC-3,0.03 nM
same,ED50 Compound/ED50 Paclitaxel,[4],0.53
same,EC50,[4],1580 ± 460 nM
same,activity compared with the isomeric mixture (Formula 48),[5],significantly more active than the isomeric mixture
C/C(=C\c1csc(C)n1)[C@@H]1C[C@@H]2O[C@]2(C)CCC[C@H](C)[C@H](O)[C@@H](C)C(=O)C(C)(C)[C@@H](O)CC(=O)O1 [Epothilone B],ED50 Compound/ED50 Paclitaxel,[4],1.11
same,EC50,[4],3310 ± 510 nM
